In brackets after ≈: the same amount, converted by molar mass.
Assays:
Assay in all cases: in vitro antibacterial evaluation, MIC by broth dilution
Assay type in all cases: cell-based
[1] = test system: Enterococcus sp.; settings: broth dilution, 18 hours at 35° C.; for MIC Enterococcus faecalis (ATCC 29212): strain ATCC 29212; for MIC Enterococcus faecalis (GC 2242): strain GC 2242; for MIC Enterococcus faecium (GC 2243): strain GC 2243; for MIC Enterococcus faecalis (GC 2691): strain GC 2691; for MIC Enterococcus faecalis (GC 3059): strain GC 3059; for MIC Enterococcus faecalis (GC 4552): strain GC 4552; for MIC Enterococcus faecalis (GC 4553): strain GC 4553; for MIC Enterococcus faecalis (GC 4554): strain GC 4554; for MIC Enterococcus faecium (GC 4556): strain GC 4556; for MIC Enterococcus faecium (GC 4557): strain GC 4557; for MIC Enterococcus avium (GC 4558): strain GC 4558; for MIC Enterococcus faecalis (GC 6189): strain GC 6189
Outline: (§1)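 Step 1: dilute antibiotic across 64-0.06 μg/mL in Muller-Hinton II […]. Step 2: inoculate at 5×10^5 CFU/mL.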

[2] = test system: Escherichia coli
Outline: as §1

[3] = test system: Staphylococcus sp.; settings: broth dilution, 18 hours at 35° C.; for MIC Staphylococcus aureus (GC 1131): strain GC 1131
Outline: as §1

[4] = test system: Streptococcus sp.; settings: broth dilution, 18 hours at 35° C.; for MIC Streptococcus pneumoniae (ATCC 6301): strain ATCC 6301; for MIC Streptococcus pneumoniae (GC 1894): strain GC 1894; for MIC Streptococcus pyogenes (GC 4563): strain GC 4563; for MIC Streptococcus agalactiae (GC 4564): strain GC 4564; for MIC Streptococcus pneumoniae (GC 4565): strain GC 4565
Outline: as §1

MIC Enterococcus faecalis (ATCC 29212) ([1]; inoculum 5×10^5 CFU/mL): 4 mg/L (≈ 2.68 µM) | MIC Enterococcus faecalis (GC 2242) ([1]; inoculum 5×10^5 CFU/mL): 2 mg/L (≈ 1.34 µM) | MIC Enterococcus faecium (GC 2243) ([1]; inoculum 5×10^5 CFU/mL): 4 mg/L (≈ 2.68 µM) | MIC Enterococcus faecalis (GC 2691) ([1]; inoculum 5×10^5 CFU/mL): 1 mg/L (≈ 0.669 µM) | MIC Enterococcus faecalis (GC 3059) ([1]; inoculum 5×10^5 CFU/mL): 16 mg/L (≈ 10.7 µM) | MIC Enterococcus faecalis (GC 4552) ([1]; inoculum 5×10^5 CFU/mL): 4 mg/L (≈ 2.68 µM) | MIC Enterococcus faecalis (GC 4553) ([1]; inoculum 5×10^5 CFU/mL): 2 mg/L (≈ 1.34 µM) | MIC Enterococcus faecalis (GC 4554) ([1]; inoculum 5×10^5 CFU/mL): 2 mg/L (≈ 1.34 µM) | MIC Enterococcus faecium (GC 4556) ([1]; inoculum 5×10^5 CFU/mL): 4 mg/L (≈ 2.68 µM) | MIC Enterococcus faecium (GC 4557) ([1]; inoculum 5×10^5 CFU/mL): 8 mg/L (≈ 5.36 µM) | MIC Enterococcus avium (GC 4558) ([1]; inoculum 5×10^5 CFU/mL): 4 mg/L (≈ 2.68 µM) | MIC Enterococcus faecalis (GC 6189) ([1]; inoculum 5×10^5 CFU/mL): 0.5 mg/L (≈ 0.335 µM) | MIC Enterococcus faecalis (ATCC 29212) [1]: 4 mg/L (≈ 2.68 µM) | MIC Enterococcus faecalis (GC 2242) [1]: 2 mg/L (≈ 1.34 µM) | MIC Enterococcus faecium (GC 2243) [1]: 4 mg/L (≈ 2.68 µM) | MIC Enterococcus faecalis (GC 2691) [1]: 1 mg/L (≈ 0.669 µM) | MIC Enterococcus faecalis (GC 3059) [1]: 16 mg/L (≈ 10.7 µM) | MIC Enterococcus faecalis (GC 4552) [1]: 4 mg/L (≈ 2.68 µM) | MIC Enterococcus faecalis (GC 4553) [1]: 2 mg/L (≈ 1.34 µM) | MIC Enterococcus faecalis (GC 4554) [1]: 2 mg/L (≈ 1.34 µM) | MIC Enterococcus faecium (GC 4556) [1]: 4 mg/L (≈ 2.68 µM) | MIC Enterococcus faecium (GC 4557) [1]: 8 mg/L (≈ 5.36 µM) | MIC Enterococcus avium (GC 4558) [1]: 4 mg/L (≈ 2.68 µM) | MIC Enterococcus faecalis (GC 6189) [1]: 0.5 mg/L (≈ 0.335 µM) | MIC Escherichia coli (ATCC 25922) ([2]; strain ATCC 25922, 18 hours at 35° C.): >64 mg/L | MIC Escherichia coli (GC 4559) ([2]; strain GC 4559, 18 hours at 35° C.): >64 mg/L | MIC Escherichia coli (GC 4560) ([2]; strain GC 4560, 18 hours at 35° C.): 16 mg/L (≈ 10.7 µM) | MIC Staphylococcus aureus (GC 1131) ([3]; inoculum 5×10^5 CFU/mL): 4 mg/L (≈ 2.68 µM) | MIC Staphylococcus aureus (ATCC 29213) ([3]; strain ATCC 29213): 16 mg/L (≈ 10.7 µM) | MIC Staphylococcus aureus (GC 1131) [3]: 4 mg/L (≈ 2.68 µM) | MIC Staphylococcus aureus (GC 3051) ([3]; strain GC 3051): 8 mg/L (≈ 5.36 µM) | MIC Staphylococcus aureus (GC 3053) ([3]; strain GC 3053): 4 mg/L (≈ 2.68 µM) | MIC Staphylococcus aureus (GC 4541) ([3]; strain GC 4541): 8 mg/L (≈ 5.36 µM) | MIC Staphylococcus aureus (GC 4542) ([3]; strain GC 4542): 8 mg/L (≈ 5.36 µM) | MIC Staphylococcus aureus (GC 4544) ([3]; strain GC 4544): 8 mg/L (≈ 5.36 µM) | MIC Staphylococcus aureus (GC 4545) ([3]; strain GC 4545): 4 mg/L (≈ 2.68 µM) | MIC Staphylococcus aureus-SMITH (GC 4543) ([3]; strain GC 4543): 4 mg/L (≈ 2.68 µM) | MIC Coagulase Negative Staphylococcus (GC 4547) ([3]; strain GC 4547): 32 mg/L (≈ 21.4 µM) | MIC Coagulase Negative Staphylococcus (GC 4548) ([3]; strain GC 4548): 0.5 mg/L (≈ 0.335 µM) | MIC Coagulase Negative Staphylococcus (GC 4549) ([3]; strain GC 4549): 2 mg/L (≈ 1.34 µM) | MIC Coagulase Negative Staphylococcus (GC 4551) ([3]; strain GC 4551): 4 mg/L (≈ 2.68 µM) | MIC Coagulase Negative Staphylococcus (GC 6257) ([3]; strain GC 6257): 2 mg/L (≈ 1.34 µM) | MIC Streptococcus pneumoniae (ATCC 6301) ([4]; inoculum 5×10^5 CFU/mL): <0.06 mg/L | MIC Streptococcus pneumoniae (GC 1894) ([4]; inoculum 5×10^5 CFU/mL): <0.06 mg/L | MIC Streptococcus pyogenes (GC 4563) ([4]; inoculum 5×10^5 CFU/mL): 0.12 mg/L (≈ 0.0803 µM) | MIC Streptococcus agalactiae (GC 4564) ([4]; inoculum 5×10^5 CFU/mL): <0.06 mg/L | MIC Streptococcus pneumoniae (GC 4565) ([4]; inoculum 5×10^5 CFU/mL): <0.06 mg/L | MIC Streptococcus pneumoniae (ATCC 6301) [4]: <0.06 mg/L | MIC Streptococcus pneumoniae (GC 1894) [4]: <0.06 mg/L | MIC Streptococcus pyogenes (GC 4563) [4]: 0.12 mg/L (≈ 0.0803 µM) | MIC Streptococcus agalactiae (GC 4564) [4]: <0.06 mg/L | MIC Streptococcus pneumoniae (GC 4565) [4]: <0.06 mg/L
SMILES: CC(c1ccccc1)C1NC(=O)CNC(=O)C(CO)NC(=O)C(C(O)C2CNC(=N)N2C2OC(CO)C(O)C(O)C2O)NC(=O)C(C(O)C2CNC(=N)N2)NC(=O)C(Cc2ccc(OC3OC(CO)C(OC4OC5COC(c6ccc(-c7ccc(Cl)cc7)cc6)OC5C(O)C4O)C(O)C3O)cc2)NC1=O (stereo not drawn) [Example 178, Cyclo[glycyl-β-methylphenylalanyl-O-[4-O-[4,6-O-[4-(4-chlorophenyl)benzylidene]hexopyranosyl]hexopyranosyl]tyrosyl-3-(2-iminoimidazolidin-4-yl)seryl-3-(3-hexopyranosyl-2-iminoimidazolidin-4-yl)serylseryl]]
MIC Staphylococcus haemolyticus (GC 4546) ([3]; strain GC 4546): 8 mg/L (≈ 5.36 µM)

From US6914045B2, “Glycopeptide antibiotics” (Wyeth Holdings Corporation, priority 2001, dated 2005)
